Test results published in patent publication US20200369674A1, “ANTI-PAIN COMPOUND AND PREPARATION METHOD THEREOF” (LUNAN PHARMACEUTICAL GROUP CORPORATION, priority 2017, published 2020).

Tests used:
ICR mice [1] = test: Xylene-induced ear swelling test in mice (Effect Example 6); type: in vivo; conditions: 2 mg/kg i.g., 30 μL xylene one hour after administration
Procedure: (§1) ICR mice, body weight 18 g-22 g, half of them being male and the other half being female, provided by the Department of Laboratory Animals, Peking University. The animals were raised in a standard environment: temperature 23±1° C., relative humidity 55±5%, light-dark cycle 12 h/12 h, and fed with standard pellet feed.
Mice were randomly divided into 5 groups, 8 mice per group, half of them being male and the other half being female. Vehicle control group (double-distilled water, i.g.), dexamethasone control group (2 mg/kg, i.g.), compound DXL-A-22 group (1 mg/kg, i.g.), and compound DXL-A-24 group (1 mg/kg, i.g.) were set. All drugs were dissolved in double-distilled water before administration, and given by intragastric administration at 0.1 mL/10 g. One hour after administration, 30 μL of xylene was evenly smeared on the inner and outer sides of right ear of mouse to cause inflammation. After 0.5 hour, the left and right ears of mouse were cut, and circular ear pieces of the same size were punched at the same position on the left and right ears using the punch (diameter 6 mm) respectively, and weighed for the weights of the left and right ear pieces. The difference between the weight of the right ear after applying xylene and the weight of the left ear without applying xylene was used as swelling degree index (i.e., swelling degree). The swelling degree was calculated according to formula (1). The intensity of anti-inflammatory effect was expressed as inhibition rate (%), and the inhibition rate (%) was calculated according to formula (2).
Swelling degree=weight of right ear piece−weight of left ear piece (1)
Inflammation inhibition rate (%)=(ear swelling degree in vehicle control group−ear swelling degree in drug group)/ear swelling degree in vehicle control group×100% (2)

ICR mice [2] = test: Carrageenan-induced paw swelling in mice; type: in vivo; conditions: 0.5 mg/kg i.g.
Procedure: as §1
The mouse was fixed in a special holder, and both hind feet were exposed. Before the test, a line was drawn at 0.5 cm below the ankle joint of mouse with a marker, and used as a mark for measuring plantar volume. 30 minutes before administration the volume of right hind foot was measured as basic threshold. The mice were randomly divided into 5 groups, 8 mice per group, half of them being male and the other half being female. Vehicle control group (double-distilled water, i.g.), dexamethasone control group (0.5 mg/kg, i.g.), compound DXL-A-22 group (1 mg/kg, i.g.), and DXL-A-24 group (1 mg/kg, i.g.) were set. All drugs were dissolved in double-distilled water before administration, and were administered at 0.1 mL/10 g. Immediately after intragastric administration, 20 μL of 5% carrageenan saline solution was injected subcutaneously in the right hind foot of the mice, and the plantar volumes were measured at time points of 0.5 h, 1 h and 2 h after injection. The difference between the plantar volume of right foot after injection of carrageenan and the plantar volume of right foot before injection was used as swelling degree index (i.e., swelling degree). The swelling degree was calculated according to formula (3). The intensity of anti-inflammatory effect was expressed as inhibition rate (%), and the inhibition rate (%) was calculated according to formula (4).
Swelling degree=plantar volume of right foot after injection−plantar volume of right foot before injection (3)
Inflammation inhibition rate (%)=(plantar swelling degree in vehicle control group−plantar swelling degree in drug administration group)/plantar swelling degree in vehicle control group×100% (4)

C[C@@H]1C[C@H]2[C@@H]3CCC4=CC(=O)C=C[C@]4(C)[C@@]3(F)[C@@H](O)C[C@]2(C)[C@@]1(O)C(=O)CO [Dexamethasone, reference compound]
Inhibition rate (%) (ICR mice [1]): 69.28% | Swelling degree (ICR mice [1]; mean±SD): 2.93 ± 0.32 mg | 0.5 h inhibition rate (%) (ICR mice [2]; 0.5 h after carrageenan injection): 69.55% | 0.5 h swelling degree (μL) (ICR mice [2]; 0.5 h after carrageenan injection, mean±SD): 26.00 ± 14.21**/ μL | 1 h inhibition rate (%) (ICR mice [2]; 1 h after carrageenan injection): 77.06% | 1 h swelling degree (μL) (ICR mice [2]; 1 h after carrageenan injection, mean±SD): 19.88 ± 10.09**/ μL | 2 h inhibition rate (%) (ICR mice [2]; 2 h after carrageenan injection): 84.64% | 2 h swelling degree (μL) (ICR mice [2]; 2 h after carrageenan injection, mean±SD): 17.13 ± 11.54**/ μL
